Laboratory results from the OPERA property sets (Mansouri et al. 2018).
Where a SMILES comes first, the peptide text is derived from it.

Structure (SMILES)	logP
CC(C)CC(N)C(=O)NC(CC(C)C)C(=O)NC(C)C(=O)NC(Cc1ccccc1)C(=O)O (centres undefined) (H-LLAF-OH; configuration not given here)	-1
C=CC(=O)OCCCCCC	3.33
CCc1c(C)nc2c3c(c(C(=O)N(C)C)cn12)CCC(c1ccccc1)O3 (centres undefined)	3.2
Cc1cc(=O)c(O)c(CNC(=O)C(C)C)n1C	-0.35
O=C(Nc1ncc([N+](=O)[O-])s1)c1ccc(Br)cc1	3.58
COc1ccc2c(c1)CCN(C)C2	2.32
CCCCNc1ncnc2nc[nH]c12	2
O=C(O)Cc1c(O)cccc1Nc1c(Cl)cccc1Cl	4.65
O=C1CCCc2nnc(-c3ccccc3)cc21	2.05
Nc1ccn([C@H]2CS[C@@H](CO)O2)c(=O)n1	-0.93
CCCOC(=O)c1cnc2n(c1=O)C(C)CCC2 (centres undefined)	1.14
COC(=O)c1c(N2CCOCC2)c(-c2ccc(Cl)cc2)cn1C(C)=O	3.5
O=S(=O)(NC(=S)N1CCCCC1)c1cnccc1NC1CCCCCCC1	4.5
O=C(O)CCCON=C(c1ccccc1)c1ccncn1	1.95
NC(=O)Cc1ccc(O)cc1	-0.09
Cc1cccc(CNc2[nH]cnc3ncnc2-3)c1	2.62
COC(=O)C(C)NP(=O)(OCC1C=CC(n2cc(C)c(=O)[nH]c2=O)O1)Oc1cccc(C(C)=O)c1 (centres undefined)	0.92
O=C1N=C(N2CCOCC2)CN1Cc1ccc(I)cc1	1.7
CN1CC(O)N(C(=O)Nc2ccccc2)C1=O (centres undefined)	1.44
CC1(C)Oc2ccc(C#N)cc2C(N2CCCC2=O)C1O (centres undefined)	2.32
CC(C)CCCNc1[nH]cnc2ncnc1-2	3.06
COc1cc(OS(C)(=O)=O)ccc1-c1cn2cccnc2n1	1.05
CC(C)(C)[N+]([O-])=Cc1ccc(Br)cc1	2
CC(C)NC(=NC#N)NS(=O)(=O)c1cnccc1Nc1cccc(Cl)c1	2.14

Structure (SMILES)	logP
COc1ccccc1N1CCN(c2ccc(Nn3c(C)ccc3C)nn2)CC1	3.61
Cc1cccc(C)c1CCn1ccnc1	2.73
CC(C)(C)[N+]([O-])=Cc1ccccc1[N+](=O)[O-]	0.8
O=C1c2ccccc2OCN1CCO[N+](=O)[O-]	1.85
COc1c2c(cc3c1-c1ccc(OC)c(=O)cc1C(NC(C)=O)CC3)OCO2 (centres undefined)	1.6
Cc1nc(C(Cl)(Cl)Cl)nc(C(Cl)(Cl)Cl)n1	3.78
CCCOC(=O)C=COc1ccccc1	3.72
CC(C)CC(NC(=O)C(Cc1ccccc1)NC(=O)C(N)C(C)C)C(=O)NC(C(=O)O)C(C)O (centres undefined) (H-VFLT-OH; configuration not given here)	-1.32
COC(=O)C(C)NP(=O)(OCC1C=CC(n2cc(C)c(=O)[nH]c2=O)O1)Oc1cccc(F)c1 (centres undefined)	1.08
O=c1cc(CSc2ccccn2)occ1O	1.14
O=C(CC1CCc2cc(Br)cc3[nH]c(=O)c(=O)n1c23)Nc1ccccc1 (centres undefined)	2.78
CC(C)C(=O)OCC1OC(n2cc(I)c(=O)[nH]c2=O)CC1O (centres undefined)	0.84
CC(C)C[C@H](NC(=O)[C@@H](N)CC(C)C)C(=O)O	-1.47
Cc1ccc(OCC2CN=C(N)O2)cc1C (centres undefined)	2.1
Cc1cc2c(C)cc3oc(=O)cc(C)c3c2o1	3.25
CN(C)CCC(c1ccccc1)c1ccccc1	4.31
O=C1C=C(N2CCOCC2)CN1c1ccc(F)c(Cl)c1	2.2
CC(C)CC(NC(=O)C(N)CO)C(=O)O (stereo not drawn) (H-Ser-Leu-OH; configuration not given here)	-2.49
CCCc1nc(NC(=O)c2ccccc2)nc(N2CCOCC2)n1	1.61
CCC(C)C(N)C(=O)NC(Cc1ccc(O)cc1)C(=O)NC(C(=O)O)C(C)C (stereo not drawn) (H-Ile-Tyr-Val-OH; configuration not given here)	-1.77
NC1=NCC(COc2cccc(C(F)(F)F)c2)O1 (centres undefined)	2.35
COc1c2ccccc2cc2ccccc12	4.36
Cc1oc2c(C)cc3c(C)cc(=O)[nH]c3c2c1C	3.5
CNC(C)Cc1ccc(N)cc1 (centres undefined)	0.81

Structure (SMILES)	logP
Cc1ccc(CO)c(C=NNC(=O)c2ccc(C(C)(C)C)cc2)c1O	4.73
COc1ccc(C2Cc3cc(C(F)(F)F)ccc3N(CCN(C)C)C(=O)C2NC(C)=O)cc1 (centres undefined)	3.6
CCCC(=NOCC)C1=C(O)CC2(CCCCC2)OC1=O	3.62
O=C1c2ccccc2-c2nnc(-c3ccc(O)cc3)cc21	2.88
COc1ccc(C2=NC(C(=O)O)CS2)c(O)c1OC (centres undefined)	1.1
CC1(C)CCC(C(F)(F)F)=[N+]1[O-]	0.2
CC1(C)C2CCC(CO)C1C2 (centres undefined)	3.41
CCC(C)C(N)C(=O)NC(C(=O)NC(C(=O)NC(C(=O)NC(C(=O)O)C(C)CC)C(C)C)C(C)C)C(C)C (centres undefined) (H-IVVVI-OH; configuration not given here)	-0.89
CN(c1nc2ccccc2s1)C1CCN(CC(O)COc2ccc(F)cc2)CC1 (centres undefined)	4.61
Clc1ccc(Cl)c2c1oc1c(Cl)ccc(Cl)c12	5.6
CCCNC(=O)c1[nH]cc(-c2ccc(Cl)cc2)c1N1CCOCC1	4.2
CO[C@H]1C=CO[C@@]2(C)Oc3c(C)c(O)c4c(c3C2=O)C2=NC3(CCN(CC(C)C)CC3)NC2=C(NC(=O)C(C)=CC=C[C@H](C)[C@H](O)[C@@H](C)[C@@H](O)[C@@H](C)[C@H](OC(C)=O)[C@@H]1C)C4=O	4.5
COC(=O)C(C)=CC1C(C(=O)OCc2cccc(Oc3ccccc3)c2)C1(C)C (centres undefined)	6.48
CC(C)(C)NCC(O)COc1cccc2c1CCN(C=O)C2 (centres undefined)	1.3
COC(=O)c1ccc(C(=O)OC)c(N)c1	2.28
CCNC(=NC#N)NS(=O)(=O)c1cnccc1NC1CCCCCCC1	2.05
CC(=O)OCC1=C(C(=O)O)N2C(=O)[C@@H](NC(=O)Cc3ccccc3)[C@H]2SC1	0.2
OC(CNCc1ccccc1)CON=C(C1CC1)C1CC1 (centres undefined)	2.08
CC(=O)Nc1ccc(S(=O)(=O)Nc2nc(C)c(C)o2)cc1	0.46
COc1ccc(CCNCC(O)COc2ccc(-c3nc(C)c(Br)[nH]3)cc2)cc1OC (centres undefined)	3.9
CC(C)(C)NC(=O)[C@@H]1CN(Cc2cccnc2)CCN1C[C@@H](O)C[C@@H](Cc1ccccc1)C(=O)N[C@H]1c2ccccc2C[C@H]1O	3.49
Cc1cc2c(nc1N)[nH]c1ccccc12	2.9
CCOP(=O)(OCC)C(C)(C)[N+]([O-])=Cc1c(OC)cc(OC)cc1OC	1.03
O=C1N=C(N2CCCCC2)CN1c1ccc(Cl)cc1	2.3

Structure (SMILES)	logP
CC(C)CC(N)C(=O)NC(Cc1ccccc1)C(=O)O (stereo not drawn) (H-Leu-Phe-OH; configuration not given here)	-1.15
Cc1ccccc1N1CCN(CC2CN=C(N)O2)CC1 (centres undefined)	1.78
COc1ccc(-n2nnnc2N)cc1	0.85
Nc1nc(N)nc(O)n1	-0.19
Clc1ccccc1N1CCN(CCn2nc3ccccc3n2)CC1	4
CCC(C)C(NC(=O)C(N)CC(C)C)C(=O)O (stereo not drawn) (H-Leu-Ile-OH; configuration not given here)	-1.64
CCCC(=O)NCCCCCN(O)C(=O)CCC(=O)NCCCCCN(O)C(=O)CCC(=O)NCCCCCN(O)C(C)=O	0.42
CCOC1N=C(c2ccccc2)c2cc(Cl)ccc2N(CCCl)C1=O (centres undefined)	3.95
CC=C(C)C(=O)OCC1CCCC2(C)CCC(C(C)(C)O)CC12 (centres undefined)	5.27
Cc1cc2c(ccc3c(C)cc(=O)oc32)o1	3.08
COc1cc(SC)ccc1-c1cn2cccnc2n1	2.44
Cc1ccc(CO)c(C=NNC(=O)c2ccc(O)cc2)c1O	2.56
S=c1[nH]nc(Cn2ccc3ccccc32)n1-c1ccccc1	2.68
Brc1ccc2ccc3cccc4ccc1c2c34	5.81
OCCCCCCCCNc1[nH]cnc2ncnc1-2	2.23
CC(C)CC(NC(=O)C(N)Cc1c[nH]c2ccccc12)C(=O)NC(CC(C)C)C(=O)NC(C(=O)O)C(C)C (centres undefined) (H-WLLV-OH; configuration not given here)	0.23
O=c1cc(-c2ccc(Cl)cc2Cl)oc2ccccc12	4.13
Cc1c(C)c2cc3c(C)coc3nc2oc1=O	2.25
CS(=O)(=O)Nc1cccc(Cn2cnc3ccccc32)c1	2.08
COc1ccc(CNCC(O)CON=C(C2CC2)C2CC2)c(OC)c1 (centres undefined)	2.22
COc1ccc(C2Cc3cc(OC(F)F)ccc3N(CCN(C)C)C(=O)C2OC(C)=O)cc1 (centres undefined)	3.8
CCC1(c2ccncc2)CCC(=O)NC1=O (centres undefined)	0.58
O=C(O)CCCCCON=C(c1ccnnc1)c1cccc(C(F)(F)F)c1	3.38
c1ccc2c(c1)OCC(Cc1ncc[nH]1)O2 (centres undefined)	1.92

Structure (SMILES)	logP
CCC(C)C(NC(=O)C(CC(C)C)NC(=O)C(N)C(C)O)C(=O)O (stereo not drawn) (H-Thr-Leu-Ile-OH; configuration not given here)	-1.66
CCCCNC(=N)NC(=O)c1ccc(Cl)cc1	3.08
COc1cc2ncnc(Nc3ccccc3F)c2cc1OC	2.2
CCN(CC)CCNC(=O)c1c(C)cc(N)cc1C	0.98
Cc1ccc(OCC(O)C(C)NC(C)C)c2c1CCC2 (centres undefined)	3.19
CCOC(=O)CCCn1cc([N+](=O)[O-])nc1C	0.58
CCC(C)NC(=O)N1C(=O)N(C)CC1O (centres undefined)	1.28
CCNc1ncnc2c1ncn2C1OC(CO)C(O)C1O (centres undefined)	0.01
CC(CC(=O)c1ccc(-c2ccc(F)cc2F)cc1)C(=O)O (centres undefined)	3.78
COC(=O)C(C)NP(=O)(OCC1C=CC(n2cc(C)c(=O)[nH]c2=O)O1)Oc1ccc(F)cc1 (centres undefined)	1.1
CNC(C)Cc1ccc(OC)cc1 (centres undefined)	1.91
O=c1cc(CSc2nc3ccccc3[nH]2)occ1O	1.51
CC(C)CC(NC(=O)C(CC(C)C)NC(=O)C(NC(=O)C(C)N)C(C)C)C(=O)O (centres undefined) (H-AVLL-OH; configuration not given here)	-1.74
COC(=O)C(C)=CC1C(C(=O)OCc2ccccc2)C1(C)C (centres undefined)	4.4
CC(=O)NC(CCCCNC(=O)N(CCCl)N=O)C(=O)NCc1ccccc1 (centres undefined)	1.54
COC(=O)c1cc(NC(=O)Cn2c(C)nc3ccccc3c2=O)cc(C(=O)OC)c1	2.98
CNc1ncnc2c1ncn2Cc1ccccc1F	1.86
Cc1ccc2c(c1)OCN(CCO[N+](=O)[O-])C2=O	2.44
O=C(O)CCCCCON=C(c1ccccc1)c1cncnc1	2.91
CN(C/C=C/C#CC(C)(C)C)Cc1cccc2ccccc12	6
COC(=O)C(C)=CC1C(C(=O)OCc2cccc(C#N)c2)C1(C)C (centres undefined)	3.83
CNC(=O)Nc1ccc(C(=O)O)cc1	1.1
CCc1cccc(COC(=O)C2C(C=C(C)C)C2(C)C)c1 (centres undefined)	6.51
